Patent publication US7531567B2, “Use of a medicament containing an effector of the glutathione metabolism together with α-lipoic acid in kidney replacement therapy” (Serumwerk Bernburg AG, priority 2001, dated 2009)
Counter-ions that a name gives are not always drawn.

Tests used:
Type in all cases: cell-based, human
T lymphocytes = assay: activation markers CD69, CD25, CD71 of phytohemagglutinin-stimulated T lymphocytes; settings: thiol-deficient cells, culture period of 72 hours, FIG. 3
Method: In the culture batch described under example 1, human T lymphocytes were stimulated with […] of phyto-hemagglutinin. […] The influence of the combinations used according to the invention on the activation markers CD69 (early activation antigen), CD25 (intermediate activation antigen) and CD71 (late activation antigen) of T lymphocytes was investigated. In FIG. 3, the action of the combination of α-lipoic acid and ambroxole (FIG. 3a), and α-lipoic acid and enalapril (FIG. 3b) on the activation index of T lymphocytes is shown. Compared with normal T lymphocytes (activation index=1.0), in thiol-deficient cells a clear lowering of the activatability, confirming the cellular functional disorder, is to be noted. […] It can thus be concluded that the normalization of the cellular thiol status mediated by the combined use of α-lipoic acid and the respective effectors of the glutathione metabolism is accompanied by a restitution of the cellular functionality.

peritoneal macrophages [1] = assay: phagocytic ability of peritoneal macrophages (fluorochrome-labelled bacteria); settings: treatment period of 6 days; for Phagocytosis rate: α-lipoic acid 50 μM, ambroxole 10 μM, enalapril 5 μM, captopril 10 μM
Method: Peritoneal macrophages were isolated analogously to the procedure described under example 3 and cultured ex vivo. The determination of the phagocytic power was carried out by means of a cytofluorometric test at the individual cell level. In this test, the macrophages were cocultured with opsonized and fluorochrome-labelled bacteria. The amount of bacteria taken up in a defined time period was recorded quantitatively by means of the fluorescence intensity in the macrophages and was regarded as a measure of their phagocytic capacity. The influence of the combinations used according to the invention on the phagocytic ability of the peritoneal macrophages after a treatment period of 6 days is presented in Table 3.

peritoneal macrophages [2] = assay: degree of differentiation and activation of peritoneal macrophages (CD15, CD11c, CD69, CD71); settings: incubation for 6 days, control = 1.0, α-lipoic acid 50 μM, ambroxole 10 μM, enalapril 5 μM, captopril 10 μM; for CD15/69: CD69 on CD15-positive cells; for CD11c/71: CD71 on CD11c-positive cells
Method: Peritoneal macrophages were isolated from patients under kidney replacement therapy according to the processes described under example 3 and cultured in the presence of the combinations of α-lipoic acid and effectors of the glutathione metabolism named according to the invention. After incubation for 6 days, the degree of differentiation of the peritoneal macrophages was determined cytofluorometrically by means of the expression of the cell surface antigens CD15 and CD11c, and the degree of cellular activation by means of the coexpression of the activation antigens CD69 on CD15-positive cells and CD71 on CD11c-positive cells.

peritoneal macrophages [3] = assay: cytokine synthesis of peritoneal macrophages (enzyme immunoassay); settings: treatment period of 6 days (n=10); α-lipoic acid 50 μM, ambroxole 10 μM, enalapril 5 μM, captopril 10 μM
Method: In parallel to this, in this experimental batch the cell culture supernatants were recovered and the cytokines interleukin-6 (IL-6) and interleukin-1 receptor antagonist (IL-1ra) contained therein, synthesized and secreted by the peritoneal macrophages, were determined.

peritoneal macrophages [4] = assay: stability of membrane-bound thiol restitution in peritoneal macrophages in the dialysis model; settings: dialysis model over 14 days; FIG. 7
Method: The peritoneal macrophages described under example 3, which were thiol-restituted by means of the combinations used according to the invention, were removed from this test system after 6 days and cultured in a dialysis model over a period of 14 days. For this, the peritoneal macrophages were adapted to mobile collagen IV-coated matrices and brought into contact with conventional dialysis solution 3 times daily for 60 minutes each. This model served here for the induction of a combined […]/osmotic stress. In FIG. 6, the action of the combination of α-lipoic acid and ambroxole (FIG. 6a), and α-lipoic acid and enalapril (FIG. 6b) on the intracellular thiol expression of the peritoneal macrophages in the time kinetics is presented. The membrane expression of thiols was determined by means of the mean fluorescence intensity (mfi) of the sample (3000 cells/measurement) after coupling to a chloro-methylfluorochrome derivative.

peritoneal macrophages [5] = assay: cellular thiol expression of peritoneal macrophages in kidney replacement therapy; settings: time kinetics over 14 days (n=12); FIG. 4
Method: Peritoneal macrophages were isolated from the effluate of the peritoneal dialysis of high-grade renally insufficient patients, taken up in cell culture medium and incubated in a gas incubator at 37° C., a relative humidity of 98% and 7.5% relative air-CO2 content. In order to test the influence of the combinations used according to the invention on the thiol status of the peritoneal macrophages, in each case a fraction was treated with α-lipoic acid, the effector of the glutathione metabolism ambroxole or the ACE inhibitor enalapril or with the combination of α-lipoic acid/ambroxole or α-lipoic acid/enalapril, while in each case a further fraction was used as an untreated control. The determination of the cellular thiol status was carried out by means of the measuring method described under 1. The membrane expression of thiols was determined by means of the mean fluorescence intensity (mfi) of the sample (3000 cells/measurement) after coupling to a chloromethylfluorochrome derivative. In FIG. 4, the effect of the combination of α-lipoic acid and ambroxole (FIG. 4a), and α-lipoic acid and enalapril (FIG. 4b) in the time kinetics over 14 days is shown (n=12).

[6] = system: lymphocytes (peripheral immune cells); assay: intracellular thiol expression of peripheral immune cells (CMFDA flow cytofluorimetry); settings: α-lipoic acid 50 μM, captopril 10 μM, combination at the same concentrations
Method: Peripheral immune cells of healthy donors (n=9) were isolated from the peripheral blood by means of density gradient centrifugation. Lymphocytes having a donor-dependent relative proportion of about 90% in this case normally represent the main fraction of the resulting total population of mononuclear cells. 10% of the mononuclear cells are represented by monocytes. The mononuclear cells obtained were taken up in special cell culture media and incubated in a gas incubator at 37° C., a relative humidity of 98% and 5% relative air-CO2 content. The metabolism of the primarily resting immune cells was activated by means of mitogenic stimulation (0.5 μg/ml of phytohemagglutinin). In order to test the influence of the combinations used according to the invention on the thiol status of thiol-deficient immune cells, these were artificially thiol-depleted. This was carried out by culturing in thiol-deficient media (RPMI 1603) according to tested procedures. Comparison cultures using whole media (RPMI 1640) served for the definition of the best possible normal value under culture conditions. […] Primarily nonfluorogenic CMFDA is in this case passively taken up by the cell. Binding to cytoplasmic thiol groups takes place via the chloromethyl radical. After removal of the acetate radicals by nonspecific cellular esterases, this, now cell membrane-impermeable complex becomes fluorogenic at an excitation wavelength λex=490 nm with an emission wavelength λem=520 nm. The mean fluorescence intensity of the sample (10,000 cells) is directly proportional to the concentration of the intracellular thiol groups. In FIG. 1, the action of the combination of α-lipoic acid and ambroxole (FIG. 1a) and α-lipoic acid and enalapril (FIG. 1b) on the intracellular thiol expression of lymphocytes is shown. […] The data are shown as the ratio of the cellular fluorescence intensity for calibration particles (beads) in each case analyzed in parallel. The active compound concentration of the respective combination is identical to the concentrations of the individual components.

peripheral immune cells = assay: membrane-bound thiol expression of peripheral immune cells (CMTMR flow cytofluorimetry); settings: α-lipoic acid 50 μM, captopril 10 μM, combination at the same concentrations
Method: Peripheral immune cells of healthy donors (n=9) were isolated from the peripheral blood by means of density gradient centrifugation. Lymphocytes having a donor-dependent relative proportion of about 90% in this case normally represent the main fraction of the resulting total population of mononuclear cells. 10% of the mononuclear cells are represented by monocytes. The mononuclear cells obtained were taken up in special cell culture media and incubated in a gas incubator at 37° C., a relative humidity of 98% and 5% relative air-CO2 content. The metabolism of the primarily resting immune cells was activated by means of mitogenic stimulation (0.5 μg/ml of phytohemagglutinin). In order to test the influence of the combinations used according to the invention on the thiol status of thiol-deficient immune cells, these were artificially thiol-depleted. This was carried out by culturing in thiol-deficient media (RPMI 1603) according to tested procedures. Comparison cultures using whole media (RPMI 1640) served for the definition of the best possible normal value under culture conditions. The expression of membrane-bound thiol groups was likewise determined by flow cytofluorimetry. In this connection, chloromethyltetramethylrhodamine (CMTMR) was employed as a thiol conjugate under the conditions of a blocked membrane potential and of an inhibited diffusion capacity of the cells. The fluorescence intensity of the bound fluorochrome molecules on the cell membrane is in this case in turn proportional to the amount of the thiol groups on the cell surface.

Structure (SMILES) | effect on the activation index of T lymphocytes (in words) (T lymphocytes) | increase in the phagocytosis rate in relation to the untreated control, factor (peritoneal macrophages [1]) | Phagocytosis rate (peritoneal macrophages [1]) | CD15/69 (peritoneal macrophages [2]) | CD11c/71 (peritoneal macrophages [2]) | CD11c (peritoneal macrophages [2]) | CD15 (peritoneal macrophages [2]) | IL-1ra (peritoneal macrophages [3]) [ng/10^6 cells] | IL-6 (peritoneal macrophages [3]) [ng/10^6 cells] | membrane-bound thiol expression in the dialysis model (in words) (peritoneal macrophages [4]) | also measured
CCOC(=O)[C@H](CCc1ccccc1)NC(C)C(=O)N1CCCC1C(=O)O (stereo in doubt) [Enalapril, 1-{N—[(S)-1-ethoxycarbonyl-3-phenylpropyl]-L-alanyl}-L-proline] | only equivalent in the case of the effectuation of the CD25 antigen of the α-lipoic acid | 1.53 | 567 ± 59 mfi/10,000 cells | 1.19 ± 0.12 | 1.10 ± 0.14 | 1.23 ± 0.22 | 1.21 ± 0.22 | 121.1 ± 16.9 | 41.7 ± 7.3 | marginal effects | –
Nc1c(Br)cc(Br)cc1CNC1CCC(O)CC1 (stereo not drawn) [Ambroxole, hydrochloride] | no influence on one of the three activation markers | 1.35 | 501 ± 52 mfi/10,000 cells | 0.98 ± 0.11 | 0.96 ± 0.1 | 1.01 ± 0.09 | 0.98 ± 0.13 | 118.6 ± 21.3 | 51.8 ± 8.1 | marginal effects | effect on the cellular thiol expression of peritoneal macrophages (in words) (peritoneal macrophages [5]): no effect
C[C@H](CS)C(=O)N1CCC[C@H]1C(=O)O [Captopril, 1-[(2S)-3-mercapto-2-methylpropionyl]-L-proline] | – | – | 653 ± 43 mfi/10,000 cells | 1.69 ± 0.21 | 1.52 ± 0.16 | 1.26 ± 0.24 | 1.19 ± 0.14 | 129.4 ± 25.1 | 42.9 ± 7.7 | – | intracellular thiol expression ([6]; culture period 0 d): 2.88 ± 0.20 mfiBeads/Ratio; intracellular thiol expression ([6]; culture period 1 d): 2.80 ± 0.21 mfiBeads/Ratio; intracellular thiol expression ([6]; culture period 2 d): 2.76 ± 0.22 mfiBeads/Ratio; intracellular thiol expression ([6]; culture period 3 d): 2.49 ± 0.26 mfiBeads/Ratio; intracellular thiol expression ([6]; culture period 4 d): 2.21 ± 0.36 mfiBeads/Ratio; intracellular thiol expression ([6]; culture period 6 d): 1.83 ± 0.33 mfiBeads/Ratio; intracellular thiol expression ([6]; culture period 8 d): 1.02 ± 0.39 mfiBeads/Ratio; intracellular thiol expression ([6]; culture period 10 d): 0.91 ± 0.46 mfiBeads/Ratio; intracellular thiol expression ([6]; culture period 12 d): 0.76 ± 0.49 mfiBeads/Ratio; intracellular thiol expression ([6]; culture period 14 d): 0.75 ± 0.56 mfiBeads/Ratio; Membrane-bound thiol expression (peripheral immune cells; culture period 0 d): 2.37 ± 0.45 mfiBeads/Ratio; Membrane-bound thiol expression (peripheral immune cells; culture period 1 d): 2.63 ± 0.39 mfiBeads/Ratio; Membrane-bound thiol expression (peripheral immune cells; culture period 2 d): 2.54 ± 0.41 mfiBeads/Ratio; Membrane-bound thiol expression (peripheral immune cells; culture period 3 d): 2.52 ± 0.38 mfiBeads/Ratio; Membrane-bound thiol expression (peripheral immune cells; culture period 4 d): 2.50 ± 0.41 mfiBeads/Ratio; Membrane-bound thiol expression (peripheral immune cells; culture period 6 d): 2.46 ± 0.50 mfiBeads/Ratio; Membrane-bound thiol expression (peripheral immune cells; culture period 8 d): 2.01 ± 0.39 mfiBeads/Ratio; Membrane-bound thiol expression (peripheral immune cells; culture period 10 d): 1.68 ± 0.29 mfiBeads/Ratio; Membrane-bound thiol expression (peripheral immune cells; culture period 12 d): 1.02 ± 0.51 mfiBeads/Ratio; Membrane-bound thiol expression (peripheral immune cells; culture period 14 d): 0.99 ± 0.46 mfiBeads/Ratio
